What was measured:
[1] = target: T1, Avi-KRAS G12R (1-169) GppNHp/RAF1 RBD-3xFLAG (52-151) (Homo sapiens, UniProt P01116, G12R); test: Raf1-KRAS G12R-GppNHP disruption HTRF assay (Biological Example 1); assay type: binding; details: KRAS G12R, GppNHp-loaded; Table 11
T1 construct: Avi-KRAS G12R (1-169)
Experimental: (§1) A protein:protein interaction (PPI) Homogeneous Time Resolved Fluorescence (HTRF) assay was used to determine the effectiveness of compounds of the present disclosure in disrupting KRAS protein and effector RAF1 binding.
(§2) The assay buffer included: 50 mM Tris pH 7.5, 100 mM NaCl, 5 mM MgCl2, 0.1% BSA, 0.01% Tween, and 10% DMSO. The bead buffer included: 50 mM Tris pH 7.5, and 0.01% Tween 20. Assay volume of 20 μL was used in a 384 well plate-low volume format.
(§3) The HTRF assay employed the following protocol:
(§4) Protein mix was prepared in assay buffer, and dispensed on plates, 10 μL per well, then incubated for 1 h at room temperature, with 700 rpm shaking, Reagents mix was prepared and dispensed on plates, 10 μL per well, then incubated for 1 h at room temperature, with 700 rpm shaking.
(§5) Data was reported as percentage of activity, with DMSO as 100%. Data was plotted and analyzed using Prism 8.

[2] = test system: GP2d cells (KRAS G12D); test: Cell-based pERK HTRF assay in GP2d cell (Biological Example 2); details: GP2d, GP2d (KRAS G12D) cells, pERK HTRF
Experimental: A pERK assay (Perkin Elmer) was used to determine the effectiveness of compounds in disrupting KRAS G12D protein/effector signaling in cells.
On Day 1, cells (GP2d) were seeded into 96-well plates at 3×10^4 cells/well in 80 μL complete growth media (DMEM, 10% FBS).
On Day 2, cells were treated with compounds at 0.25% DMSO. The source plate was created with compounds diluted in media at 5-fold the final assay concentration. The compounds were run in a 9-point concentration curve starting at 1 μM or in a 9-point concentration curve starting at 100 nM, with a half-log dilution between concentrations. Twenty μL was transferred onto the cell plates (final volume in wells was 100 μL). Plates were harvested after 60 min incubation by aspirating media and adding kit-supplied 1x supplemented lysis buffer to all wells (50 μL per well). Plates were then placed on a plate shaker and incubated at 850 rpm for an additional 30 min.
Antibody mixture solution was prepared by diluting aliquoted d2 and Eu Cryptate antibodies 1:20 in kit supplied detection buffer, and mixing the diluted antibodies solutions (1:1 v:v).
Samples were homogenized by pipetting up and down and then transferred (16 μL of cell lysates) from the 96-well cell culture plate to two wells of the HTRF 384-well detection plate containing the antibody solution. Plates were centrifuged (524 g for 1 min) and allowed to incubate between 4 and 24 h at room temperature. Maximum signal is reached after 4 h incubation time and remains stable over a period of 24 hours. Therefore, readings can be made between 4 and 24 h of incubation. Plates were centrifuged again (524 g for Imin), then analyzed on the EnVision plate reader using the following settings: Excitation 320 nm, Bandwidth 75 nm; Emission 615 nm, Bandwidth 85 nm; Gain 100%; Flashes 100; Lag 60 μs.

[3] = target: T2, Avi-KRAS G12V (1-169) GppNHp/RAF1 RBD-3xFLAG (52-151) (Homo sapiens, UniProt P01116, G12V); test: Raf1-KRAS G12V-GppNHP disruption HTRF assay (Biological Example 1); assay type: binding; details: KRAS G12V, GppNHp-loaded; Table 11
T2 construct: Avi-KRAS G12V (1-169)
T2 sequence (P01116 1-169 isoform P01116-2 G12V): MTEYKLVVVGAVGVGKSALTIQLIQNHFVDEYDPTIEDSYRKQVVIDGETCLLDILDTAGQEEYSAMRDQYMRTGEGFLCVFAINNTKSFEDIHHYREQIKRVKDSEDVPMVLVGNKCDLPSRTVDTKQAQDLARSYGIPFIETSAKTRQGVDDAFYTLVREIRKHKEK
Experimental: as §1, §2, §3, §4, §5

[4] = target: T3, Avi-KRAS WT (1-169) GppNHp/RAF1 RBD-3xFLAG (52-151) (Homo sapiens, UniProt P01116); test: Raf1-KRAS WT-GppNHP disruption HTRF assay (Biological Example 1); assay type: binding; details: KRAS WT, GppNHp-loaded; Table 11
T3 construct: Avi-KRAS WT (1-169)
T3 sequence (P01116 1-169 isoform P01116-2): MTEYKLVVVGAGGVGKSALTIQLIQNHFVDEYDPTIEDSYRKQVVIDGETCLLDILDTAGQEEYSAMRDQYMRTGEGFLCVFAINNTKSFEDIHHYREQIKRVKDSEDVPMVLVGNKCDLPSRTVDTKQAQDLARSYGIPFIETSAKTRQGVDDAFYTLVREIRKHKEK
Experimental: as §1, §2, §3, §4, §5

[5] = target: T4, Avi-KRAS G12D (1-169) GppNHp/RAF1 RBD-3xFLAG (52-151) (Homo sapiens, UniProt P01116, G12D); test: Raf1-KRAS G12D-GppNHP disruption HTRF assay (Biological Example 1); assay type: binding; details: KRAS G12D, GppNHp-loaded; Table 11
T4 construct: Avi-KRAS G12D (1-169)
T4 sequence (P01116 1-169 isoform P01116-2 G12D): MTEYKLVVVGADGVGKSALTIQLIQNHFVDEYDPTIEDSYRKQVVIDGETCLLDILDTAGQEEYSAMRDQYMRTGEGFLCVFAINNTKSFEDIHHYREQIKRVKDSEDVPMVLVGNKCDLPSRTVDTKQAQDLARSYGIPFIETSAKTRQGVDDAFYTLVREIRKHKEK
Experimental: as §1, §2, §3, §4, §5

T1 sequence (P01116 1-169 isoform P01116-2 G12R): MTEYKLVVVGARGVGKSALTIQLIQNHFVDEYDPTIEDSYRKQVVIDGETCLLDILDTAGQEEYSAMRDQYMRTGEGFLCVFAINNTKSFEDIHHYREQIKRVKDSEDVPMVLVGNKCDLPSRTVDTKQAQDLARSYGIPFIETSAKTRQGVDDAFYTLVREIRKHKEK

Row | Structure (SMILES) | IC50 [1] | IC50 [2] | IC50 [3] | IC50 [4] | IC50 [5]
1 | C[C@@H](O)C1CCN(c2nc(OC[C@@]34CCCN3C[C@H](F)C4)nc3c(F)c(-c4ccc(F)c5sc(N)c(C#N)c45)c(C(F)(F)F)cc23)CC1 [Compound 49] | 100 to 1000 nM | < 100 nM | 100 to 1000 nM | 100 to 1000 nM | < 100 nM
2 | CC(=O)N1CC[C@H](N(C)c2nc(OC[C@@]34CCCN3C[C@H](F)C4)nc3c(F)c(-c4ccc(F)c5sc(N)c(C#N)c45)c(C(F)(F)F)cc23)[C@H]1C [Compound 191] | 100 to 1000 nM | < 100 nM | 100 to 1000 nM | 100 to 1000 nM | 100 to 1000 nM
3 | N#Cc1c(N)sc2c(F)ccc(-c3c(C(F)(F)F)cc4c(N5CC6CCC(C5)O6)nc(OC[C@@]56CCCN5C[C@H](F)C6)nc4c3F)c12 [Compound 130] | 100 to 1000 nM | < 100 nM | 1000 to 10000 nM | 100 to 1000 nM | 100 to 1000 nM
4 | CN(c1nc(OC[C@@]23CCCN2C[C@H](F)C3)nc2c(F)c(-c3ccc(F)c4sc(N)c(C#N)c34)c(C#N)cc12)[C@H]1C[C@@H](O)C1 [Compound 32, 7-(2-amino-3-cyano-7-fluoro-benzothiophen-4-yl)-8-fluoro-2-[[(2R,8S)-2-fluoro-1,2,3,5,6,7-hexahydropyrrolizin-8-yl]methoxy]-4-[(3-hydroxycyclobutyl)-methyl-amino]quinazoline-6-carbonitrile] | 100 to 1000 nM | 100 to 1000 nM | 1000 to 10000 nM | 100 to 1000 nM | 100 to 1000 nM
5 | CN1CCC[C@H]1COc1nc(N(C)[C@H]2C[C@@H](O)C2)c2cc(C(F)(F)F)c(-c3ccc(F)c4sc(N)c(C#N)c34)c(F)c2n1 [Compound 35] | 100 to 1000 nM | < 100 nM | 100 to 1000 nM | 100 to 1000 nM | 100 to 1000 nM
6 | CCN(CCCO)c1nc(OC[C@@]23CCCN2C[C@H](F)C3)nc2c(F)c(-c3ccc(F)c4sc(N)c(C#N)c34)c(C(F)(F)F)cc12 [Compound 175] | 100 to 1000 nM | < 100 nM | 100 to 1000 nM | 100 to 1000 nM | 100 to 1000 nM
7 | CC(=O)N1CCN(c2nc(OC[C@@]34CCCN3C[C@H](F)C4)nc3c(F)c(-c4ccc(F)c5sc(N)c(C#N)c45)c(C(F)(F)F)cc23)CC1 [Compound 100] | 100 to 1000 nM | < 100 nM | 1000 to 10000 nM | 100 to 1000 nM | 100 to 1000 nM
8 | CN(c1nc(OC[C@@]23CCCN2C[C@H](F)C3)nc2c(F)c(-c3ccc(F)c4sc(N)c(C#N)c34)c(C(F)(F)F)cc12)C1CCC1 [Compound 22] | 100 to 1000 nM | < 100 nM | 100 to 1000 nM | 100 to 1000 nM | 100 to 1000 nM
9 | N#Cc1c(N)sc2c(F)ccc(-c3c(C(F)(F)F)cc4c(N5CCC(F)(F)CC5)nc(OC[C@@]56CCCN5C[C@H](F)C6)nc4c3F)c12 [Compound 150] | 100 to 1000 nM | < 100 nM | 1000 to 10000 nM | 100 to 1000 nM | 100 to 1000 nM
10 | N#CC[C@@H]1CN(c2nc(OC[C@@]34CCCN3C[C@H](F)C4)nc3c(F)c(-c4ccc(F)c5sc(N)c(C#N)c45)c(C(F)(F)F)cc23)CCO1 [Compound 136] | 100 to 1000 nM | < 100 nM | 1000 to 10000 nM | 100 to 1000 nM | 100 to 1000 nM
11 | N#Cc1c(N)sc2c(F)ccc(-c3c(C(F)(F)F)cc4c(N5CC[C@@H]5CO)nc(OC[C@@]56CCCN5C[C@H](F)C6)nc4c3F)c12 [Compound 168] | 100 to 1000 nM | < 100 nM | 100 to 1000 nM | < 100 nM | < 100 nM
12 | N#Cc1c(N)sc2c(F)ccc(-c3c(C(F)(F)F)cc4c(N5C[C@H](F)[C@@H](F)C5)nc(OC[C@@]56CCCN5C[C@H](F)C6)nc4c3F)c12 [Compound 158] | 100 to 1000 nM | < 100 nM | 100 to 1000 nM | 100 to 1000 nM | 100 to 1000 nM
13 | CCN(CCO)c1nc(OCC23CCCN2CCC3)nc2c(F)c(-c3ccc(F)c4sc(N)c(C#N)c34)c(C(F)(F)F)cc12 [Compound 176] | 100 to 1000 nM | < 100 nM | 100 to 1000 nM | 100 to 1000 nM | < 100 nM
